Where two headings read alike, the source gives them in different places.
Conditions: amide bond, THF

With `CCCCCCN1C[C@@H](CCF)NC(=O)[C@H]([C@H](C)OCc2ccccc2)NC(=O)[C@H](CNC(=O)OCc2ccccc2)NC(=O)[C@H](C2CCCCC2)NC(=O)[C@H](CC(C)C)N(C)C(=O)[C@@H]1C` the ring closure, yield of all isomers (from CCCCCCN(C[C@H](N)CCF)[C@@H](C)C(=O)N(C)[C@@H](CC(C)C)C(=O)N[C@H](C(=O)N[C@@H](CNC(=O)OCc1ccccc1)C(=O)N[C@H](C(=O)O)[C@H](C)OCc1ccccc1)C1CCCCC1, HATU/DIPEA, 1.36 mM, 25.0 °C, 20.0 h) was 43.4%.
Molecule `CC[C@@H]1CN(CC2CCCC2)[C@@H](C)C(=O)N(C)[C@@H](CC(C)C)C(=O)N[C@@H](C2CCCCC2)C(=O)N[C@@H](CNC(=O)OCc2ccccc2)C(=O)N[C@@H]([C@H](C)OCc2ccccc2)C(=O)N1` has a ring closure, yield of all isomers (from CC[C@@H](N)CN(CC1CCCC1)[C@@H](C)C(=O)N(C)[C@@H](CC(C)C)C(=O)N[C@H](C(=O)N[C@@H](CNC(=O)OCc1ccccc1)C(=O)N[C@H](C(=O)O)[C@H](C)OCc1ccccc1)C1CCCCC1, HATU, DIPEA, 1.24 mM, 25.0 °C, 2.5 h) of 45.7%.
`CCCCCC[C@H]1OC[C@@H](C)NC(=O)[C@H](COC2CC3(C2)CN(C(=O)OC(C)(C)C)C3)NC(=O)[C@H](CNC(=O)OCc2ccccc2)NC(=O)[C@H](C2CCCCCC2)NC(=O)[C@H](CCC)N(C)C(=O)[C@@H]1C` showed a ring closure, yield of all isomers (from CCCCCC[C@@H](OC[C@@H](C)N)[C@@H](C)C(=O)N(C)[C@@H](CCC)C(=O)N[C@H](C(=O)N[C@@H](CNC(=O)OCc1ccccc1)C(=O)N[C@@H](COC1CC2(C1)CN(C(=O)OC(C)(C)C)C2)C(=O)O)C1CCCCCC1, HATU, DIPEA, 1.35 mM, 25.0 °C, 2.5 h) of 39%.
Work on `CCCCCC[C@H]1OC[C@@H](C)NC(=O)[C@H](CNC(=O)OC(C)(C)C)NC(=O)[C@H](CNC(=O)OCc2ccccc2)NC(=O)[C@H](C2CCCCC2)NC(=O)[C@H](CC(C)C)N(C)C(=O)[C@@H]1C` yielded a ring closure, yield of all isomers (from CCCCCC[C@@H](OC[C@@H](C)N)[C@@H](C)C(=O)N(C)[C@@H](CC(C)C)C(=O)N[C@H](C(=O)N[C@@H](CNC(=O)OCc1ccccc1)C(=O)N[C@@H](CNC(=O)OC(C)(C)C)C(=O)O)C1CCCCC1, HATU/DIPEA, 1.08 mM, 25.0 °C, 16.0 h) of 55%.
`CCCC[C@H]1C(=O)N(C)[C@@H](CC(C)C)C(=O)N[C@@H](C2CCCCC2)C(=O)N[C@@H](CNC(=O)OCc2ccccc2)C(=O)N[C@@H](COCCCNC(=O)OC(C)(C)C)C(=O)N[C@H](C)CN1CC1CC1` gave a ring closure, yield of all isomers (from CCCC[C@@H](C(=O)N(C)[C@@H](CC(C)C)C(=O)N[C@H](C(=O)N[C@@H](CNC(=O)OCc1ccccc1)C(=O)O)C1CCCCC1)N(CC1CC1)C[C@@H](C)NC(=O)[C@@H](N)COCCCNC(=O)OC(C)(C)C, HATU/DIPEA, 1.14 mM, 19.0 h) of 30%.
